Earlier results as cited in patent US20150272124A1, “ANTIMICROBIAL COMPOSITIONS CONTAINING CATIONIC ACTIVE INGREDIENTS” (Ecolab USA Inc., priority 2014, published 2015).

Conditions: calcium-chelating agent complex, logarithmic form

O=C(O)CC(NC(CC(=O)O)C(=O)O)C(=O)O (stereo not shown) [IDS, Iminodisuccinic Acid]
Log Stability constant, Ca2+: 5.2
